Legend:
Format in all cases: cell-based
LP1 = experiment: gIC50 in multiple myeloma cell line LP1 treated with EZH2 inhibitors; conditions: Homo sapiens, LP-1, t(4;14)+, UTX Hom 1621C>T (Q541X)
Description: (§1) All cells were grown in RPMI 1640 (Invitrogen) supplemented with 10% heat-inactivated FBS and 1% penicillin/streptomycin.
(§2) Cells were treated with the EZH2 inhibitors below. GSK2816126A is also known as GSK126 and is a compound of Formula I, specifically Compound B as described herein. Data in Table I was used to generate the data in FIG. 14. EZH2 inhibitors of Formula II, III, and IV and Compound C are used to generate gIC50 values and similar results as with GSK126 are found. Additional cell lines are tested with EZH2 inhibitors of Formula I, II, III, IV, Compound B, and Compound C and an improved cell killing, e.g. as measured by gIC50, is seen in cell lines having an increased level of MMSET expression, or a decreased level of UTX enzyme, or both, as compared to a control, e.g. a tissue typed control sample not characterized as having cancerous attributes.

KMS-11 = experiment: gIC50 in multiple myeloma cell line KMS-11 treated with EZH2 inhibitors; conditions: Homo sapiens, t(4;14)+
Description: as §1, §2

RPMI-8226 = experiment: gIC50 in multiple myeloma cell line RPMI-8226 treated with EZH2 inhibitors; conditions: Homo sapiens, MMSET none, UTX wt
Description: as §1, §2

KMS-12-BM = experiment: gIC50 in multiple myeloma cell line KMS-12-BM treated with EZH2 inhibitors; conditions: Homo sapiens, MMSET none, UTX Hom del exons 5-12
Description: as §1, §2

OpM2 = experiment: gIC50 in multiple myeloma cell line OpM2 treated with EZH2 inhibitors; conditions: Homo sapiens, OPM-2, t(4;14)+, UTX Het c.197G>A p.G66D
Description: as §1, §2

## CC[C@H](C)n1cc(C)c2c(C(=O)NCc3c(C)cc(C)[nH]c3=O)cc(-c3ccc(N4CCNCC4)nc3)cc21 [GSK2816126A]
LP1
  IC50: 2.38 µM
KMS-11
  IC50: 3.02 µM
RPMI-8226
  IC50: 1.69 µM
KMS-12-BM
  IC50: 2.57 µM
OpM2
  IC50: 0.861 µM
